The text below walks through data of ChEMBL document CHEMBL2062478, “Targeted kinase selectivity from kinase profiling data” (ACS Med Chem Lett, 2012).

Each structure is given as a SMILES string. Where only a bound is given, the exact number is not on record here.

The target of assay [1] is Platelet-derived growth factor receptor alpha (Homo sapiens, UniProt P16234). As to the kind of experiment: Inhibition of PDGFRA.
In assay [2] the target is Tyrosine-protein kinase Lck (Homo sapiens, UniProt P06239). Kind of assay: Inhibition of LCK.
Assay [3] addresses Epidermal growth factor receptor (Homo sapiens, UniProt P00533). Kind of assay: Inhibition of EGFR.
The target of assay [4] is Cyclin-dependent kinase 1 (Homo sapiens, UniProt P06493). Kind of assay: Inhibition of CDC2.
Assay [5] concerns the target Cell division cycle 7-related protein kinase (Homo sapiens, UniProt O00311). As to the kind of experiment: Inhibition of CDC7.

Platelet-derived growth factor receptor alpha, sequence (P16234 whole entry): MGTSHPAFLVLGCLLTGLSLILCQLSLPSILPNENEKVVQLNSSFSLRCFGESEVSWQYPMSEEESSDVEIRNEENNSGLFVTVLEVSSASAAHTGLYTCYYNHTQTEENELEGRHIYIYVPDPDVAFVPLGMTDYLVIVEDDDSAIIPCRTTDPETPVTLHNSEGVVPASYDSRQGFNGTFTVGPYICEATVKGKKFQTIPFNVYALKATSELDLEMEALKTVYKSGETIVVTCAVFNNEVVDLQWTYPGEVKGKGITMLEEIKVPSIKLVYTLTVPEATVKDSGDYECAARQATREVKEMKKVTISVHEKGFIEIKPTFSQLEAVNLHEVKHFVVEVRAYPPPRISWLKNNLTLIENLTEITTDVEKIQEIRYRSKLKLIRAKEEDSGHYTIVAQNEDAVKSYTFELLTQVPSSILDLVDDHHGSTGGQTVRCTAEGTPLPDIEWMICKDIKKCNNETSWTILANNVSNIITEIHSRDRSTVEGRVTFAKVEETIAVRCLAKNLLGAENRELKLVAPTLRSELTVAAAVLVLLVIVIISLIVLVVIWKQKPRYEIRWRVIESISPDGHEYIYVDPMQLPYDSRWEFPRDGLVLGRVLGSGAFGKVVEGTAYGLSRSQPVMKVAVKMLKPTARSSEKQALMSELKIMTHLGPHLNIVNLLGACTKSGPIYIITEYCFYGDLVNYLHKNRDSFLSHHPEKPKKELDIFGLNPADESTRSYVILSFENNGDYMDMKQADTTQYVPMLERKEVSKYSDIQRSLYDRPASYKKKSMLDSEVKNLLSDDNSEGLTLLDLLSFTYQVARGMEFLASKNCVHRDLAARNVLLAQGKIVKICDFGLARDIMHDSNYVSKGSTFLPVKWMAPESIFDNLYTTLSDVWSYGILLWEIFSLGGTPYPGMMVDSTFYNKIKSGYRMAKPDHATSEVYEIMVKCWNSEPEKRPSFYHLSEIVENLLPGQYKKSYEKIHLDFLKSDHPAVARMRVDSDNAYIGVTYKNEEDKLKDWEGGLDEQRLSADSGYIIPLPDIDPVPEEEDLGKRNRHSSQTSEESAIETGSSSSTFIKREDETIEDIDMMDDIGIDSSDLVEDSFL
Cyclin-dependent kinase 1, sequence (P06493 whole entry): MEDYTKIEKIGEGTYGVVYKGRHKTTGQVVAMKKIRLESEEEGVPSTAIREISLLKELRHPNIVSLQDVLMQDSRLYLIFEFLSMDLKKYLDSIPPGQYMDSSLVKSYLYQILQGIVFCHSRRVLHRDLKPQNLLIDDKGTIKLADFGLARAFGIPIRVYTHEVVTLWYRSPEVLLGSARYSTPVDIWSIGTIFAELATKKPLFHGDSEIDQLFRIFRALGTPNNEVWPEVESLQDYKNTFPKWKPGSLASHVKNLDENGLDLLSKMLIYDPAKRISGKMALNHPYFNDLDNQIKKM
Cell division cycle 7-related protein kinase, sequence (O00311 whole entry): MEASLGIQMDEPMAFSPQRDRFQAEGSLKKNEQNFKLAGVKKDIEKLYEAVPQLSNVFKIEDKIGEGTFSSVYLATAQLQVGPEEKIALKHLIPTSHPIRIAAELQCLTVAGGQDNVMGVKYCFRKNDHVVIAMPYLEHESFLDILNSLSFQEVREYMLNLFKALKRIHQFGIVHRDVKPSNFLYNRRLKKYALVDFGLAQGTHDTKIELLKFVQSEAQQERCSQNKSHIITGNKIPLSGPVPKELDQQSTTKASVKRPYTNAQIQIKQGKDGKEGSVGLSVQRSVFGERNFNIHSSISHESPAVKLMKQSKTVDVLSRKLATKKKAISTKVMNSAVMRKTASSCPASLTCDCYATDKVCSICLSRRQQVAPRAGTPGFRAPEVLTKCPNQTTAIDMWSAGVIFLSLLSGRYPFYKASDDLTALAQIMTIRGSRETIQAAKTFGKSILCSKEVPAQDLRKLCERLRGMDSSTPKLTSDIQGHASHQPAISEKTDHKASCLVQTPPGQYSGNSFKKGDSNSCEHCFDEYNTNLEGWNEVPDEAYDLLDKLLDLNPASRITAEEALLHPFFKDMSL
Tyrosine-protein kinase Lck, sequence (P06239 whole entry): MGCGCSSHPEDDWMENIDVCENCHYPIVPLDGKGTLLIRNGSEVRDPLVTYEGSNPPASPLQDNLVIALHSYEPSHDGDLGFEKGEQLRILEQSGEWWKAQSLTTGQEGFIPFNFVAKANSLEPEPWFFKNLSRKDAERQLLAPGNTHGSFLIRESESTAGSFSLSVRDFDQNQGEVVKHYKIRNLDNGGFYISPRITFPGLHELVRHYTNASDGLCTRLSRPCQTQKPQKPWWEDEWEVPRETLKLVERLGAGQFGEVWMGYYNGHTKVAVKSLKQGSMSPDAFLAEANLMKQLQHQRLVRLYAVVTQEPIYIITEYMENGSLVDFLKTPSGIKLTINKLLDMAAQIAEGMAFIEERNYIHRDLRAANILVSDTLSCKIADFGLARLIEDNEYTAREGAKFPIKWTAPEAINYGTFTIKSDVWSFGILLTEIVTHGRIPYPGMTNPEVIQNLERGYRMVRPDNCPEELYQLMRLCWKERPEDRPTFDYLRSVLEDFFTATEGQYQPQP
Epidermal growth factor receptor, sequence (P00533 whole entry): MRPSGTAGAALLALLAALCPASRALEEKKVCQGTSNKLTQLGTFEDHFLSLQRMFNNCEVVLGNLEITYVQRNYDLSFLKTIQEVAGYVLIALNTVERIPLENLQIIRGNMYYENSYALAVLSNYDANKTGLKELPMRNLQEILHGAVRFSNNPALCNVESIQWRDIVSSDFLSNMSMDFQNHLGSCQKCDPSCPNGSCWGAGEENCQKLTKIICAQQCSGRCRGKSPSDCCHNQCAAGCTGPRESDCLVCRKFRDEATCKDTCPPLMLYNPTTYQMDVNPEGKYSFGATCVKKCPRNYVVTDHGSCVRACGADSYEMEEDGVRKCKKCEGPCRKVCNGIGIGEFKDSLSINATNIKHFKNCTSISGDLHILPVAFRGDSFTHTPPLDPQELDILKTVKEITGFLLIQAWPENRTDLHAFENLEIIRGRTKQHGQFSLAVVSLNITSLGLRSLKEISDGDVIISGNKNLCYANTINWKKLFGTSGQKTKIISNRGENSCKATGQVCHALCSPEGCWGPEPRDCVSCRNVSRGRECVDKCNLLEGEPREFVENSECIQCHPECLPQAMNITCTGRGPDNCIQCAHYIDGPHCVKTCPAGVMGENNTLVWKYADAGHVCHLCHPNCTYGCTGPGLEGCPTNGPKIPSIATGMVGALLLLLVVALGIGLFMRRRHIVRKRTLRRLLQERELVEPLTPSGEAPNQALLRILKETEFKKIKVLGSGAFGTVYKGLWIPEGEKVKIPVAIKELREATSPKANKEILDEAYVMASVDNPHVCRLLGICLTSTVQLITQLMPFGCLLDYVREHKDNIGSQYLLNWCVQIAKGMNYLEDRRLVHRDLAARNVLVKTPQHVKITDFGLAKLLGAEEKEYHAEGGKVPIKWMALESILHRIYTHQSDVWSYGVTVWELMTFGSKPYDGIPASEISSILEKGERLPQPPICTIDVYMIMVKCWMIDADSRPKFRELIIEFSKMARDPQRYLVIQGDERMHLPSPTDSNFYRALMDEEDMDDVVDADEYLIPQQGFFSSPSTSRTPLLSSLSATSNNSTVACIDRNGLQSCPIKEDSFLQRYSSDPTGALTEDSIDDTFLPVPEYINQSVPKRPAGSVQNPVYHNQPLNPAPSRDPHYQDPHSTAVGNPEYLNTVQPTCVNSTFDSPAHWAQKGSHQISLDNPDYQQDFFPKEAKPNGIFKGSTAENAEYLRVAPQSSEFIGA

As a reminder, the Ki is a measure of affinity in units of concentration, obtained from inhibition or displacement. Low values mean higher affinity, high ones lower affinity. `CC(C)(C(N)=O)n1cc(-c2cnc(N)c3c(-c4ccc(NC(=O)Nc5cccc(F)c5)cc4)csc23)cn1` gave a Ki in assay [1] of more than 10000 nM.
As to `O=C(Cc1ccccc1)Nc1cc(-c2nc3sccn3c2-c2ccnc(Nc3ccc(N4CCOCC4)cc3)n2)ccc1Cl`, the Ki in assay [2] was 79.4 nM; in assay [3], more than 10000 nM.
On to `O=C(Nc1n[nH]c2ccc(-c3cn(Cc4ccccc4)nn3)cc12)c1cccc(Cl)c1`, for which, in assay [4], the Ki is more than 10000 nM.
For the compound `C[C@@H](O)Cn1cc(-c2cnc(N)c3c(-c4ccc(NC(=O)Nc5cccc(F)c5)cc4)csc23)cn1`, the inhibition constant Ki in assay [1] was more than 10000 nM.
In assay [1], `Cc1cccc(NC(=O)Nc2ccc(-c3csc4c(C#CC(C)(C)N)cnc(N)c34)cc2)c1` showed a Ki of more than 10000 nM.
With `O[C@H]1CC[C@H](Nc2nc(Cl)cc(-c3c[nH]c4ncccc34)n2)CC1`, the Ki was 39.8 nM in assay [4] and 0.158 nM in assay [5].
Regarding `CN(C)[C@H]1CC[C@H](Nc2nc(Cl)cc(-c3c[nH]c4ncccc34)n2)CC1`, the Ki is more than 10000 nM in assay [4] and 0.316 nM in assay [5].
